Results as given in ChEMBL document CHEMBL1201862, “PubChem BioAssay data set” (2004).
Activity calls are given as the source filed them.

Legend:
Melanocortin receptor 4 = Melanocortin receptor 4 (Homo sapiens, UniProt P32245); type: functional, cell-based;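 also: Cell-based assay with luminescence read-out, confirmatory dose-response testing for agonist activity of biased ligands at MC4R; human U2OS cells with tagged receptor and beta-arrestin; potency of agonists that increase receptor coupling to beta-arrestin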
[1] = target: T1, Endoribonuclease toxin MazF (Escherichia coli K-12, UniProt P0AE70); assay: substrate-only fluorescence increase artefacts – biochemical, single-stranded RNase substrate, counter-screen for MazEF activator project, dose response (AID 588502); type: functional
T1 sequence (P0AE70 whole entry): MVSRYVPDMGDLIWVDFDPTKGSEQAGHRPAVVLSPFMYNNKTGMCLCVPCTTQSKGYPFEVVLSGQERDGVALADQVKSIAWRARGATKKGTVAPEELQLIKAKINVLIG

[2] = target: T1, Endoribonuclease toxin MazF; assay: activation of MazEF endoribonuclease cleavage – biochemical, fluorescence, single-stranded RNA substrate, uHTS hits, dose response (AID 588481); type: functional
[3] = target: T2, Probable nicotinate-nucleotide adenylyltransferase (Staphylococcus aureus (strain N315), UniProt P65502); type: functional, Staphylococcus aureus subsp. aureus N315;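 as to IC50 Mean: confirmatory dose-response retesting of NadD inhibitor hits first found in an ultra-high-throughput screen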
[4] = target: Heat shock protein HSP 90-alpha (Homo sapiens, UniProt P07900); type: functional, organism-based
[5] = target: T2, Probable nicotinate-nucleotide adenylyltransferase; type: functional, Staphylococcus aureus subsp. aureus N315; conditions: read-out: IC50_Mean
[6] = off-target signal loss in HeLa-CEM21 co-culture – HeLa F-luc CTL cells, cherry-picked, counter-screen for HIV-1 Env fusion inhibitor project, dose response (AID 652040); type: functional, cell-based;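 also: potency for signal decrease marking cytotoxic or nonspecific inhibition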
[7] = blockers of HIV-1 envelope-mediated cell-cell fusion – cherry-pick, dose response (AID 652057); type: functional, cell-based
[8] = viability loss in CEM21 cells – cell-based, CellTiter-Glo luminescence, cherry-picked, cytotoxicity control for viral fusion inhibitor project, dose response (AID 652042); type: functional;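 also: potency for signal decrease meaning cytotoxicity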
[9] = HIV-1 AD8 envelope cell-cell fusion blockers – cherry-pick, dose response (AID 652062); type: functional, cell-based;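 also: luciferase signal from cell-cell fusion driven by HIV-1 clade B AD8 Env; potency is for inhibitors of fusion seen as a drop in luminescence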
[10] = blockers of HIV-1 ZM109 envelope-driven cell-cell fusion – HeLa effector, CEM target cells, luciferase, cherry-pick, dose response (AID 652058); type: functional, cell-based;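 also: luciferase signal from HIV-1 Env mediated cell-cell fusion of effector and target cells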
Vero = assay: viability loss in Vero cells – cell-based, plate reader, cherry-pick samples, cytotoxicity control, dose response (AID 687020); type: functional; conditions: Chlorocebus sabaeus
Beta-lactamase [11] = target: Beta-lactamase (Pseudomonas aeruginosa, UniProt Q79MP6);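 also: biochemical dose-response test of metallo-beta-lactamase enzyme inhibition, read out by epi-absorbance; purified recombinant IMP-1 metallo-beta-lactamase with nitrocefin as substrate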
Beta-lactamase [12] = target: Beta-lactamase (Salmonella choleraesuis (strain SC-B67), UniProt Q5J463)
[13] = target: Fructose-bisphosphate aldolase (Mycobacterium tuberculosis, UniProt P9WQA3); assay: Fluorescence-based biochemical high throughput dose response assay for inhibitors of the fructose-bisphosphate aldolase (FBA) of M. tuberculosis.; type: functional
[14] = target: T3, Methionyl-tRNA synthetase, putative (Trypanosoma brucei brucei, UniProt Q38C91); type: functional, Trypanosoma brucei brucei strain 927/4 GUTat10.1
T3 sequence (Q38C91 whole entry): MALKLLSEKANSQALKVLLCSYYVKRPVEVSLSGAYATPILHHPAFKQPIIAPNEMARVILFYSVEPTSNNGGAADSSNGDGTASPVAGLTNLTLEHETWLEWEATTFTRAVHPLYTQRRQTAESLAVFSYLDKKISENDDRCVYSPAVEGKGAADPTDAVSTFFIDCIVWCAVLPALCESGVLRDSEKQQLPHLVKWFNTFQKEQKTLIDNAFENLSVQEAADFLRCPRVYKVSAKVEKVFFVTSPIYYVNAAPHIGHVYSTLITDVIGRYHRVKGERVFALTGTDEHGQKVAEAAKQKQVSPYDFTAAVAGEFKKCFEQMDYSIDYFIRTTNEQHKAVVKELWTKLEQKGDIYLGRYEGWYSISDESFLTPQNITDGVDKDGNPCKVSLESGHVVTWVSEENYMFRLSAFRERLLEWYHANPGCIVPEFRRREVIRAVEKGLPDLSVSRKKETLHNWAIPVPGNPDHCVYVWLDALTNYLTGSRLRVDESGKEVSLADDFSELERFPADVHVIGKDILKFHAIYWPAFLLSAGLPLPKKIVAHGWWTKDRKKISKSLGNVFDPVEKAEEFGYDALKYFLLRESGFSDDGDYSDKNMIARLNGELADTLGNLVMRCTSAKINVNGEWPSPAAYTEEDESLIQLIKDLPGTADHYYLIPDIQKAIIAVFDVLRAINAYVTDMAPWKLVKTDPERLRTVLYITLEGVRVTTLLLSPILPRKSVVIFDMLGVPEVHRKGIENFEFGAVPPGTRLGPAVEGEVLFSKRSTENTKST

[15] = target: T3, Methionyl-tRNA synthetase, putative; type: functional, Trypanosoma brucei brucei strain 927/4 GUTat10.1; remark: listed apart in the source
[16] = Counterscreen for inhibitors of Trypanosoma brucei methionyl tRNA synthetase (MetRS): Luminescence-based cell-based high throughput dose response assay to identify compounds that are cytotoxic to Jurkat human T lymphocyte cells.; type: functional
[17] = target: Long-chain-fatty-acid--AMP ligase FadD28 (Mycobacterium tuberculosis, UniProt P9WQ59); assay: Fluorescence polarization aasay to screen for inhibitors that compete for the binding of FadD28 to a bisubstrate Measured in Biochemical System Using Plate Reader - 2147-01_Inhibitor_Dose_CherryPick_Activity.; type: functional, Mycobacterium tuberculosis H37Rv
Cytochrome P450 1A2 = target: T4, Cytochrome P450 1A2 (Homo sapiens, UniProt P05177);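 also: PubChem cytochrome P450 panel assay, CYP1A2 panel member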
T4 sequence (P05177 whole entry): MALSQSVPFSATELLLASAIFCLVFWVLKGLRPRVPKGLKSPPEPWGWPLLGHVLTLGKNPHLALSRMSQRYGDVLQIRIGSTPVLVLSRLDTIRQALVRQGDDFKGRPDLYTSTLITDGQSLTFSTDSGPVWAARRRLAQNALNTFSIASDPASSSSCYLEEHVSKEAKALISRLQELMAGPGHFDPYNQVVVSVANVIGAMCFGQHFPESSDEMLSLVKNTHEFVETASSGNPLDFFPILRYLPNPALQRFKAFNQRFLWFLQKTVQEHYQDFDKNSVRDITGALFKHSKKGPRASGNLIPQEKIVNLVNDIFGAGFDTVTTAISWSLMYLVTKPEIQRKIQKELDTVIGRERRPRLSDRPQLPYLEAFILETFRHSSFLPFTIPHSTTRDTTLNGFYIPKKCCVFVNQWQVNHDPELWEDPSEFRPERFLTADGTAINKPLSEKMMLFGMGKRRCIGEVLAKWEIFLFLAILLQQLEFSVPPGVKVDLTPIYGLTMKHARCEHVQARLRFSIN

Cytochrome P450 2C9 = Cytochrome P450 2C9 (Homo sapiens, UniProt P11712)
Cytochrome P450 2D6 = Cytochrome P450 2D6 (Homo sapiens, UniProt P10635);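 also: CYP2D6 member of a cytochrome P450 panel assay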
[18] = target: T5, Sentrin-specific protease 8 (Homo sapiens, UniProt Q96LD8); type: functional
T5 sequence (Q96LD8 whole entry): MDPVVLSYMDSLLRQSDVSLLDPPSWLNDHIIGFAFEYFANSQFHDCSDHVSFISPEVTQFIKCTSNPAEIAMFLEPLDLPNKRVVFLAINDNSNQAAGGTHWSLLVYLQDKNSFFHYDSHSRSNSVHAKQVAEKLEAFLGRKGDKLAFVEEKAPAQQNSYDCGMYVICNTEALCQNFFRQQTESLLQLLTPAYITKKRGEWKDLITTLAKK

[19] = target: T5, Sentrin-specific protease 8; type: functional; remark: listed apart in the source
Genome polyprotein = Genome polyprotein (dengue virus type 2, UniProt P29990); assay: flavivirus cap methylation enzyme inhibition – biochemical, confirmation dose response, primary screen (AID 588689); type: functional
Aminopeptidase N = target: T6, Aminopeptidase N (Plasmodium falciparum FcB1/Columbia, UniProt O96935); assay: malaria alanyl aminopeptidase activity blockers – biochemical, fluorogenic H-Leu-NHMec substrate, 1536-well (AID 1445); design: species or system Plasmodium falciparum 3D7, 3D7
T6 sequence (O96935 whole entry): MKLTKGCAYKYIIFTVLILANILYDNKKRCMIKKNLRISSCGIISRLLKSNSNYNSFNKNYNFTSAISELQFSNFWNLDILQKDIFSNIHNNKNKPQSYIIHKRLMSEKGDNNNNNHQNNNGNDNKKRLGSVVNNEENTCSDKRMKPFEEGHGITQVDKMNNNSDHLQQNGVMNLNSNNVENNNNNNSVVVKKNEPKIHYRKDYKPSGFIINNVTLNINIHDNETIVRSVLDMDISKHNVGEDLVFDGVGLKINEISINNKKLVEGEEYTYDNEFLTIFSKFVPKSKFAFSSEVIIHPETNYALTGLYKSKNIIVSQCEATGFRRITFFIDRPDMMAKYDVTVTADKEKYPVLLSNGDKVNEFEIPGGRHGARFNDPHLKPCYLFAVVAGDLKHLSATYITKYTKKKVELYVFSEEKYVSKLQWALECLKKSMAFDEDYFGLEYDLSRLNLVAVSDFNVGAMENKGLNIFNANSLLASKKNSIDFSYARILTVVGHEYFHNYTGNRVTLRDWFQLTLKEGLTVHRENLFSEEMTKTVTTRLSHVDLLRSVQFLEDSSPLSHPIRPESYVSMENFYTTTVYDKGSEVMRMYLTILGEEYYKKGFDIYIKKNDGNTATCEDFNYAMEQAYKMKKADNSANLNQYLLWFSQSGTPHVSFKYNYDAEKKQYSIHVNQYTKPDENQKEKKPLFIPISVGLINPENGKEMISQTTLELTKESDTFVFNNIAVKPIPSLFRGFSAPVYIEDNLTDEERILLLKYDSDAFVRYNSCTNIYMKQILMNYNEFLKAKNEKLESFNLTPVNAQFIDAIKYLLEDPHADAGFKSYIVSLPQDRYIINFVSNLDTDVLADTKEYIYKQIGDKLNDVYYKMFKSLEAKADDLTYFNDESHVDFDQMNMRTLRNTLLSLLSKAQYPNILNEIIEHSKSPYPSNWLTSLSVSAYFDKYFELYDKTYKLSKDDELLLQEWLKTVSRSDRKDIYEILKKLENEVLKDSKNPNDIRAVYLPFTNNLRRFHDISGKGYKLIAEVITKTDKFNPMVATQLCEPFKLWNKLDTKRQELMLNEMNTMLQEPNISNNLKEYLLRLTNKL

[20] = target: ADP-ribosylation factor GTPase-activating protein 1 (Rattus norvegicus, UniProt Q62848); assay: Fluorescence polarization-based biochemical high throughput dose response screening assay to identify inhibitors of ADP-ribosylation factor GTPase activating protein 1 (ARFGAP1).; type: functional
H9c2 = assay: cells; type: functional, cell-based; conditions: Rattus norvegicus, H9c2, Myocardium;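 also: confirmatory concentration-response retest of ultra-high-throughput screening hits for modulation of myocardial damage; cell death induced by hydrogen peroxide oxidative stress; compound pretreatment for 60 min then peroxide exposure for 2 h; potency is for protecting the cells against peroxide damage rather than for killing them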

T2 sequence (P65502 whole entry): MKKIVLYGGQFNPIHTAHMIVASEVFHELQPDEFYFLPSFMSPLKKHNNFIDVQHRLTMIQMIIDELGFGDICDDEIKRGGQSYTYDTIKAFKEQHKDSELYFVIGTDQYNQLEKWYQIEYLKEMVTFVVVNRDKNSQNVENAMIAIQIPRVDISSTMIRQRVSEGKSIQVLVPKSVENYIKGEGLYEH
Long-chain-fatty-acid--AMP ligase FadD28, sequence (P9WQ59 whole entry): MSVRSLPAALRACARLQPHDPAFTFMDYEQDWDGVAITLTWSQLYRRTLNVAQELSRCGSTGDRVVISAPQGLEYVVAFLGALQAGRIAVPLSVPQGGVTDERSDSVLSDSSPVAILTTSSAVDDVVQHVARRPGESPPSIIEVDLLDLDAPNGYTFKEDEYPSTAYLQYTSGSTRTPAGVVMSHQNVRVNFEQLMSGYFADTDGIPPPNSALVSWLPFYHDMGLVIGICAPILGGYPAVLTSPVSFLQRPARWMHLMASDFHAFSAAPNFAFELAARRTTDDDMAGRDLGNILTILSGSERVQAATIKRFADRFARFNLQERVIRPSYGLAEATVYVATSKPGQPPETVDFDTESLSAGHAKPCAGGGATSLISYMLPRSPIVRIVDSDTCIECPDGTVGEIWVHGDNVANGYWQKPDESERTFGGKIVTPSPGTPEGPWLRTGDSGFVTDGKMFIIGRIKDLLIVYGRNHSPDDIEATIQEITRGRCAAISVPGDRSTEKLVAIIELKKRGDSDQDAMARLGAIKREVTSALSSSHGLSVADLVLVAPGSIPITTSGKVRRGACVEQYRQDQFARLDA
Genome polyprotein, sequence (P29990 2492-3391 limits assumed): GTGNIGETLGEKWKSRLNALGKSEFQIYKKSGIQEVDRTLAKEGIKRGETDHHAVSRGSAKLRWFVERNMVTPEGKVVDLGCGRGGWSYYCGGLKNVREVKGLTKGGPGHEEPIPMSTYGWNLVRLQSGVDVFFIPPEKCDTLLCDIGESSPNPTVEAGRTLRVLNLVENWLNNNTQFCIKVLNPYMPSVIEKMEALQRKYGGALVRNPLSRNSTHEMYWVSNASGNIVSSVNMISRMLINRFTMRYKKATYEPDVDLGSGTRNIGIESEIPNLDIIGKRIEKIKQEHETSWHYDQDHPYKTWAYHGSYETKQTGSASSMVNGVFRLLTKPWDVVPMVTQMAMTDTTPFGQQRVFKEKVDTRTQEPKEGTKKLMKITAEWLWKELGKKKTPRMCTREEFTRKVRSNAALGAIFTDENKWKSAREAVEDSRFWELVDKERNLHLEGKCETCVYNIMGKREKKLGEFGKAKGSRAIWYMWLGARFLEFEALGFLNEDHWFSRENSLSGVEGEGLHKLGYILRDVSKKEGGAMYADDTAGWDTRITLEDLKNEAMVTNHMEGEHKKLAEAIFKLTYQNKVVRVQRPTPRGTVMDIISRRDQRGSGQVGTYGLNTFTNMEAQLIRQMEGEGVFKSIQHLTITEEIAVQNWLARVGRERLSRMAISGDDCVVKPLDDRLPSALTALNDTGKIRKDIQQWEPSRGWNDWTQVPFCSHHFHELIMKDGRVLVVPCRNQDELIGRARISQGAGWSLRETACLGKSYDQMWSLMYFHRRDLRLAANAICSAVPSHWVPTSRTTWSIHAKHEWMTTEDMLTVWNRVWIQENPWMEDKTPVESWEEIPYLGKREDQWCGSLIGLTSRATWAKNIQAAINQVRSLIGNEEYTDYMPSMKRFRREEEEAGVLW
Fructose-bisphosphate aldolase, sequence (P9WQA3 whole entry): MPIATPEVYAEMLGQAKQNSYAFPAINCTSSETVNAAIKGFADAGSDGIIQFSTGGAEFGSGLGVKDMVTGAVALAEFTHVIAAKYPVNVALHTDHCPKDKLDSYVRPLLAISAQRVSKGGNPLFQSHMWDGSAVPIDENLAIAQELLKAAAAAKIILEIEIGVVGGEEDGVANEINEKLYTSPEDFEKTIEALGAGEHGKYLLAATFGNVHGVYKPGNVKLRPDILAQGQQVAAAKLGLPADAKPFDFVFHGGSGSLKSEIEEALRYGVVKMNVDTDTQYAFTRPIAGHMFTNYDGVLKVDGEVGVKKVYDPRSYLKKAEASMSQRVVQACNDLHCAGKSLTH
ADP-ribosylation factor GTPase-activating protein 1, sequence (Q62848 whole entry): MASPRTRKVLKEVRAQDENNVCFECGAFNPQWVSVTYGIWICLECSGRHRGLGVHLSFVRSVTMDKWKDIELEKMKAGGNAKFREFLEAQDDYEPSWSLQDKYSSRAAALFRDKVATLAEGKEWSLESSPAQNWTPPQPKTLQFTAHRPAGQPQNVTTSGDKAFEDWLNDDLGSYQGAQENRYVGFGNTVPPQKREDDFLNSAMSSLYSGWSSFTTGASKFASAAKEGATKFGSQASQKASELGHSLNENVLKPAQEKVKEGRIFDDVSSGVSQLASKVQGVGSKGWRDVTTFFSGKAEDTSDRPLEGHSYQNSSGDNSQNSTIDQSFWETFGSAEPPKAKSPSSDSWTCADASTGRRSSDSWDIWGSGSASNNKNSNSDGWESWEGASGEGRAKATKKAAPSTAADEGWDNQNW
Melanocortin receptor 4, sequence (P32245 whole entry): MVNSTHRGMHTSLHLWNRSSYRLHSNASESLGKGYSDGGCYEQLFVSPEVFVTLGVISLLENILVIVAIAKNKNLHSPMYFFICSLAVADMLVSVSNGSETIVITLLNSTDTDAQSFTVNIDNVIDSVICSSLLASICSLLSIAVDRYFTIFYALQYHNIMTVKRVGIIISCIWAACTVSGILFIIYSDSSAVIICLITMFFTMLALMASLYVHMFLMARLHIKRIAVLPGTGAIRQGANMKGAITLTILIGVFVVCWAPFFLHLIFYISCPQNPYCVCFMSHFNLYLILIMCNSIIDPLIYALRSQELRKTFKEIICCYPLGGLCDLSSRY
Beta-lactamase (Pseudomonas aeruginosa, UniProt Q79MP6), sequence (Q79MP6 whole entry): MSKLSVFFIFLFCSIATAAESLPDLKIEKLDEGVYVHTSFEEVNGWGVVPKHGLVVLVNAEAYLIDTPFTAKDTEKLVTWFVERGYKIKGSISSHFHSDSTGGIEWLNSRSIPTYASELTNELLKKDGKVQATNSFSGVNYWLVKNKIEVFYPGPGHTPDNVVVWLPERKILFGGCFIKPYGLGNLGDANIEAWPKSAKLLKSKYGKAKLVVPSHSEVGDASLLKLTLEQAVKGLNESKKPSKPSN
Cytochrome P450 2D6, sequence (P10635 whole entry): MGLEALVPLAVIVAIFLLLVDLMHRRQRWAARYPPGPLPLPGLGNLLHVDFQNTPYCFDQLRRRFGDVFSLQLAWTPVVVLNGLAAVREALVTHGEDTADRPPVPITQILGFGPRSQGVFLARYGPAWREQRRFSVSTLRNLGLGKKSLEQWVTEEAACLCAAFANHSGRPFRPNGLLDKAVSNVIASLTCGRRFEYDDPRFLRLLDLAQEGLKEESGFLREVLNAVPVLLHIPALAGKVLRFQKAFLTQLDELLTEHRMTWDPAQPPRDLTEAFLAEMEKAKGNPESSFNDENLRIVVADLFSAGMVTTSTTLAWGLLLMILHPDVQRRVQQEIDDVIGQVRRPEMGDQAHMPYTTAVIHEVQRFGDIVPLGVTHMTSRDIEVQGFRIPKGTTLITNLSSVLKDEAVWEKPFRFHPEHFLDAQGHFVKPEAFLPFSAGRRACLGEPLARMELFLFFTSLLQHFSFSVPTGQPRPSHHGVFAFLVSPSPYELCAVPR
Cytochrome P450 2C9, sequence (P11712 whole entry): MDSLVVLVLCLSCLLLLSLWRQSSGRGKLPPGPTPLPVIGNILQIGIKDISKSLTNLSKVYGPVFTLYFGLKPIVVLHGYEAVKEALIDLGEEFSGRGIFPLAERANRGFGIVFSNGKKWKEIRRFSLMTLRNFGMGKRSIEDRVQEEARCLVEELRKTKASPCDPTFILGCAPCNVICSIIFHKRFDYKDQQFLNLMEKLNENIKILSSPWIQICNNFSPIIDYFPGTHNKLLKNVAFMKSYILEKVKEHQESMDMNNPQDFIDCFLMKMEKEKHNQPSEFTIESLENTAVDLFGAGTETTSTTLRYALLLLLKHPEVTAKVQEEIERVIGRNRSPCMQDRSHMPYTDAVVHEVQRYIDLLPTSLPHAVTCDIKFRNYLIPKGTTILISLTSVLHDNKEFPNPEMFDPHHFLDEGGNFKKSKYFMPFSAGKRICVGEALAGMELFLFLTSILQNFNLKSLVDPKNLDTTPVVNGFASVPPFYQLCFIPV
Beta-lactamase (Salmonella choleraesuis (strain SC-B67), UniProt Q5J463), sequence (Q5J463 whole entry): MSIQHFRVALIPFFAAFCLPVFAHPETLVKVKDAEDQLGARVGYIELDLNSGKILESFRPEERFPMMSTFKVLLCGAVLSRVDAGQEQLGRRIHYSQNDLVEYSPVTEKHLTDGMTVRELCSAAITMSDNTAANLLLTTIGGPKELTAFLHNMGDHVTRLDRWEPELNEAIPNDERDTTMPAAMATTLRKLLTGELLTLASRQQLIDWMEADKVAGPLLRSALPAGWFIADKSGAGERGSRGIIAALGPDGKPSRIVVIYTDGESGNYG

With `COc1ccc2oc(=O)c(-c3csc(Nc4cccc(O)c4)n3)cc2c1` the EC50 (Melanocortin receptor 4) was > 89.2 µM (inactive), the EC50 [1] was > 99 µM (inactive) and the EC50 [2] was > 99 µM (inactive). The IC50 [3] was 19.2 µM (active), the AC50 [4] was 7.16 µM (active) and the IC50 [5] was 29 µM (active).
In the case of `CCOc1ccc(C(O)(CCC(C)C)C(CN2CCOCC2)c2ccccc2)cc1` (stereo not given), the AC50 [6] was 5.42 µM (active), the AC50 [7] was 3.6 µM (active) and the AC50 [8] was 26.8 µM (active). For the same compound, the AC50 [9] was 9.83 µM (active) and the AC50 [10] was 3.65 µM (active).
With `Cc1ccc(NC(=O)Cn2cccc2C2=NC(c3ccccc3)CO2)cc1C` (stereo not given) the AC50 (Vero) was 27.9 µM (active).
With `O=C(CCN1C(=O)/C(=C/c2ccc(Cl)cc2)SC1=S)NCCCn1ccnc1` the IC50 (Beta-lactamase [11]) was > 59.6 µM (inactive) and the IC50 (Beta-lactamase [12]) was > 59.6 µM (inactive).
In the case of `O=C(Nc1ccc2c(c1)OCCO2)c1cccs1`, the IC50 [13] was > 9.98 µM (inactive).
For `Cc1cccc(NS(=O)(=O)c2ccc3nc(-c4ccccc4)[nH]c3c2)c1C`, the IC50 [14] was 14.6 µM (inactive) and the IC50 [15] was 119 µM (inactive).
In the case of `NC(Cc1ccc(C(F)(F)F)cc1)c1csc(NC(=O)Nc2ccccc2)n1` (stereo not given), the EC50 (Melanocortin receptor 4) was > 89.2 µM (inactive), the AC50 [6] was 3.13 µM (active) and the IC50 [14] was 2.39 µM (active). The IC50 [15] was 1.47 µM (active), the AC50 [7] was 2.85 µM (active) and the AC50 [8] was 11.3 µM (active). The IC50 [16] was 24.7 µM (inactive), the AC50 [9] was 8.46 µM (active) and the AC50 [10] was 2.21 µM (active).
For `COc1ccccc1NCc1nnc(SCC(=O)N/N=C/c2ccco2)n1-c1ccc(Cl)cc1Cl`, the AC50 [17] was > 100 µM (inactive), the AC50 (Cytochrome P450 1A2) was 28.2 µM (inconclusive) and the AC50 (Cytochrome P450 2C9) was 35.5 µM (inconclusive). The AC50 (Cytochrome P450 2D6) was 28.2 µM (inconclusive).
With `O=C1CC(Nc2ccc([N+](=O)[O-])cc2)=NN1c1c(Cl)cc(Cl)cc1Cl` the IC50 [18] was 12.3 µM (active), the IC50 [19] was 16 µM (active) and the IC50 (Genome polyprotein) was 48.4 µM (active).
With `COC(=O)C[C@H]1c2cc(C(F)(F)F)ccc2S(=O)(=O)N1Cc1ccc(OC)cc1` the AC50 (Vero) was 34.6 µM (active).
In the case of `CCCOc1ccc(C(=O)N/N=C/c2ccc(-c3ccc(S(=O)(=O)Nc4ncccn4)cc3)o2)cc1`, the IC50 (Genome polyprotein) was > 100 µM (active), the IC50 (Aminopeptidase N) was 26.1 µM (active) and the IC50 [3] was 6.45 µM (active). For the same compound, the IC50 [5] was 31 µM (active).
For `Cc1ccc(-c2nn(-c3ccccc3)cc2/C=C/C(=O)Nc2nccs2)cc1`, the IC50 [20] was 20.3 µM (inactive).
With `COc1cccc(NC(=O)CC(=O)c2ccc([N+](=O)[O-])cc2)c1` the AC50 [17] was 94.1 µM (active).
In the case of `CSc1nccc(Oc2ccccc2Cl)n1`, the IC50 [13] was > 9.99 µM (inactive).
For `COC(=O)c1cccc(Nc2nc(-c3cccnc3)nc3ccccc23)c1`, the IC50 [20] was 38.3 µM (inactive) and the IC50 (H9c2) was 4.96 µM (active).
With `O=C(c1ccccc1)[C@@H]1[C@@H](C(=O)c2ccc(F)cc2)[C@@]2(C(=O)Nc3ccccc32)[C@H]2c3ccccc3C=CN12` the IC50 [18] was 12.1 µM (active) and the IC50 [19] was 1.21 µM (active).
